Laboratory results taken from patent publication US10952974B2, “Delivery of bioactive, nanoencapsulated antioxidants” (Board of Supervisors of Louisiana State University and …, priority 2014, dated 2021).
Converted amounts (≈) assume the structure as drawn. Where two headings read alike, the source gives them in different places.

How the values were obtained:
[1] = Solubility of lutein in water and organic solvents; type: physicochemical; details: chloroform vs ethanol
[2] = system: selenite-induced cataract; assay: Selenite-induced cataract in rat pups, first animal study; type: in vivo, Wistar albino rat
Method: Four pregnant Wistar female albino rats were obtained from the Laboratory Animal Facility of the Iuliu Hatieganu University of Medicine and Pharmacy in Cluj-Napoca, Romania. Each female rat and its litter of pups were housed in plastic cages, on a 12 h lighting cycle, at constant temperature (22° C.) with free access to rat chow and tap water. At 12 days of age, the rat pups were randomized into seven groups as follows:
Group 1 (selenite group, positive control): no exposure to lutein
Group 2 (PLGA-NP-1) daily received orally, by gavage, 2.5 mg/kg PLGA-NP-lutein dispersed in a 0.5 mL emulsion of 30% olive oil+70% flour slurry, corresponding to a daily dose of 2.66 mg lutein/kg body mass. (The flour slurry, in turn, had been prepared by mixing 0.3 g flour in 1 ml water.)
Group 3 (PLGA-NP-2) daily received orally, by gavage, 5 mg/kg PLGA-NP-lutein dispersed in 0.5 mL emulsion of 30% olive oil+70% flour slurry, corresponding to a daily dose of 5.32 mg lutein/kg body mass. (Flour slurry: identical to that used for Group 2
Group 4 (lutein) daily received orally, by gavage, 0.00525 mg unmodified lutein dispersed in 0.5 mL emulsion of 30% olive oil+70% flour slurry, corresponding to a daily dose of 0.125 mg lutein/kg body mass. (Flour slurry: identical to that used for Group 2.)
Group 5 (HG-PLGA-NP-1) was treated locally, once a day, with corneal application (1 drop in each eye) of 1 wt % PLGA-NP-lutein in the bioadhesive hydrogel of Example 19. (30 mg of lyophilized lutein-loaded PLGA NPs were dissolved in 3 ml of bioadhesive hydrogel. The volume of one drop of hydrogel was approx. 0.012 mL, with a density of 0.9444 g/mL.)
Group 6 (HG-PLGA-NP-2) was treated locally, once a day, by corneal application (1 drop/in each eye) with 3% PLGA-NP-lutein in a bioadhesive hydrogel. (90 mg of lyophilized lutein-loaded PLGA NPs were dissolved in 3 ml of bioadhesive hydrogel. The volume of one drop of hydrogel was approx. 0.012 mL, with a density of 0.9444 g/mL.)
Group 7 (negative control)—no exposure to selenite, and no lutein treatment.
On day 13 post-partum, cataracts were induced in all animals in Groups 1-6 with a single, intraperitoneal injection of sodium selenite (Na2SeO3), 30 μmol/kg. Subsequently, the animals from groups 2-6 were treated daily, in accordance with the protocols described above. The lutein content of the PLGA-NPs (42.61 μg lutein/mg PLGA-NP) was assessed by UV-VIS spectrophotometry (450 nm) with an external standard calibration. On day 21 post-partum, cataract development was evaluated by slit-lamp examination. Eyes were scored into one of five stages: stage 0 (no cataract), stage 1 (slight nucleus opacity), stage 2 (mild nucleus opacity, a central while opacity occupying less than half the diameter of the nucleus), stage 3 (dense opacity, a central while opacity occupying more than half the diameter of the nucleus) and stage 4 (dense, white opacity over the whole nucleus). Statistics were performed in SPSS 14.0 for Windows and Excel. The variables were checked for normal distribution with the Shapiro-Wilk test. Groups were compared with the Wilcoxon test. Statistical significance was set at p<0.05.

[3] = cited from earlier work
[4] = cited from earlier work; remark: listed apart in the source
[5] = oral gavage daily, 0.125 mg lutein/kg, day 21 postpartum

CC1=C[C@H](O)CC(C)(C)[C@H]1/C=C/C(C)=C/C=C/C(C)=C/C=C/C=C(C)/C=C/C=C(C)/C=C/C1=C(C)C[C@@H](O)CC1(C)C [Lutein, β,ε-carotene-3,3′-diol]
solubility in chloroform relative to solubility in ethanol [1]: 20 times
Cataract stage Mean ± SD [2, 5]: 3.2 ± 0.8
Stage 0 [2, 5]: 0 no. animals
Stage 1 [2, 5]: 0 no. animals
Stage 2 [2, 5]: 1 no. animals
Stage 3 [2, 5]: 2 no. animals
Stage 4 [2, 5]: 2 no. animals
reduction in cataract development vs selenite group ([2]; treated orally): small (and statistically insignificant) reduction in cataract development
Stability ([3]; stored at −20° C. under a nitrogen atmosphere): Stable if stored at −20 °C under a nitrogen
Stability ([3]; to light and oxygen): Unstable to light and oxygen;
Solubility ([4]; in 2-Propanol): 400 µg/mL (≈ 703 µM)
Solubility ([4]; in Acetone): 800 µg/mL (≈ 1410 µM)
Solubility ([4]; in Acetonitrile): 100 µg/mL (≈ 176 µM)
Solubility ([4]; in Benzene): 600 µg/mL (≈ 1050 µM)
Solubility ([4]; in Chloroform): 6000 µg/mL (≈ 10500 µM)
Solubility ([4]; in Cyclohexane): 50 µg/mL (≈ 87.9 µM)
Solubility ([4]; in Cyclohexanone): 4000 µg/mL (≈ 7030 µM)
Solubility ([4]; in Dimethyl formamide): 1000 µg/mL (≈ 1760 µM)
Solubility ([4]; in Ethyl acetate): 800 µg/mL (≈ 1410 µM)
Solubility ([4]; in Ethyl alcohol): 300 µg/mL (≈ 527 µM)
Solubility ([4]; in Ethyl ether): 2000 µg/mL (≈ 3520 µM)
Solubility ([4]; in Hexane): 20 µg/mL (≈ 35.2 µM)
Solubility ([4]; in Methyl alcohol): 200 µg/mL (≈ 352 µM)
Solubility ([4]; in Methyl tert butyl ether): 2000 µg/mL (≈ 3520 µM)
Solubility ([4]; in Tetrahydrofuran): 8000 µg/mL (≈ 14100 µM)
Solubility ([4]; in Toluene): 500 µg/mL (≈ 879 µM)
Solubility in water [4]: Insoluble
Solubility in water ([4]; listed as lutein): water-insoluble
